The target of assay [1] is T1, Glycogen phosphorylase, muscle form (Oryctolagus cuniculus) (UniProt P00489).
T1 sequence (whole entry): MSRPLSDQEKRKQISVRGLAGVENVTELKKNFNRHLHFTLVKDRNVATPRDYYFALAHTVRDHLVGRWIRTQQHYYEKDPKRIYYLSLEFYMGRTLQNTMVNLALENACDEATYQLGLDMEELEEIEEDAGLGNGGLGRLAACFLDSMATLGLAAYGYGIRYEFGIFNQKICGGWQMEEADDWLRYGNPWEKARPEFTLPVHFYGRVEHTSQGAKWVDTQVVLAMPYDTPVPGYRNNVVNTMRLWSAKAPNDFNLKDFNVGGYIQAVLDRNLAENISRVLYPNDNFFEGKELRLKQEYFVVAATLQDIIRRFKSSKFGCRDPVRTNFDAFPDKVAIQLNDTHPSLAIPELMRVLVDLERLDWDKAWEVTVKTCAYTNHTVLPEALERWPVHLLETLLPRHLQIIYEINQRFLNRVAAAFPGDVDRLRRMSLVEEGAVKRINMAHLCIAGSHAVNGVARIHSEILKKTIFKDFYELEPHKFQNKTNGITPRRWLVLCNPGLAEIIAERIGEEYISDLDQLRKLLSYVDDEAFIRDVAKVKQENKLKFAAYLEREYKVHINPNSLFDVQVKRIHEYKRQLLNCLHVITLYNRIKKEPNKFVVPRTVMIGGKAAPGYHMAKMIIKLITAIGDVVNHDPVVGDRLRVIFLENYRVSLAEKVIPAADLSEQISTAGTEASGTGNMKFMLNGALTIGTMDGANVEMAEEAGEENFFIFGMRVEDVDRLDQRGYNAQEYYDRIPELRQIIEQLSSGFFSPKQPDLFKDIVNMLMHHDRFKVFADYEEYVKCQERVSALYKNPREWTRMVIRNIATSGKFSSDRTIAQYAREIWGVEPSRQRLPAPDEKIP
The assay is described as follows: Inhibition of rabbit muscle glycogen phosphorylase assessed as release of phosphate from glucose 1 phosphate at 0.222 to 22 mM.

Assay [2] addresses T1, Glycogen phosphorylase, muscle form (Oryctolagus cuniculus). The assay is described as follows: Inhibition of rabbit glycogen phosphorylase assessed as release of phosphate from glucose 1 phosphate at <=1.4 to 3 mM.
For assay [3] the target is unchanged. The assay is described as follows: Inhibition of rabbit glycogen phosphorylase assessed as release of phosphate from glucose 1 phosphate at 22 mM.
Assay [4] deals with T2, Glycogen phosphorylase, muscle form (Oryctolagus cuniculus, UniProt P00489).
T2 sequence (P00489 whole entry): T1 sequence (whole entry)
The assay is described as follows: Inhibition of rabbit muscle glycogen phosphorylase assessed as release of phosphate from glucose 1 phosphate.

In assay [5] the target is T1, Glycogen phosphorylase, muscle form (Oryctolagus cuniculus). The experiment in a line: Inhibition of rabbit glycogen phosphorylase assessed as release of phosphate from glucose 1 phosphate at 3 mM.

The source made the active and inactive calls. No cut-off for these calls is given here.

A word on the inhibition: it is the drop in the measured response relative to a control, in per cent. As usually defined, the IC50 is the midpoint of a concentration-inhibition curve.

`CC1(C)C=CC(=O)c2c1ccc1c2C(O)OC1=O` (stereo not drawn): in assay [1], the result was inactive.
Take `CC1(C)c2ccc3c(c2C(=O)[C@@H]2O[C@@H]21)[C@H](O)OC3=O` (racemic): the result in assay [1] and in assay [2] was inactive.
On to `O=C(O)c1ccc2c(c1C(=O)O)C(=O)CCC2`, for which the result in assay [1] was inactive.
Same read-out and setting: then `COC(=O)c1ccc2c(c1C(=O)OC)C(=O)C=CC2(C)C`, with “inactive”; and `COC(=O)c1ccc2c(c1C(=O)OC)C(=O)[C@@H]1O[C@@H]1C2(C)C` (racemic), with “inactive”; and `CC1(C)C=CC(=O)c2c1ccc(C(=O)O)c2C(=O)O`, with “inactive”.
Still for that read-out and setting: then `COC(=O)c1ccc2c(c1C(=O)OC)C(=O)C(Br)CC2(C)C` (stereo not drawn), with “inactive”; and `COC(=O)c1ccc2c(c1C(=O)OC)C(=O)CCC2`, with “inactive”.
On the same count and under the same terms, then `COC(=O)c1ccc2c(c1C(=O)OC)C(=O)CCC2(C)C`, with “inactive”.
As for `CCCCCSC(=O)c1c(C(=O)O)ccc2c1C(=O)CCC2`, the inhibition in assay [3] is 55%. In addition, in assay [4], the half-maximal inhibitory concentration (IC50) was determined as 1300 µM.
Take `CC(C)OC(=O)c1c(C(=O)O)ccc2c1C(=O)CCC2`: the result in assay [1] was inactive.
As to `O=C(O)c1ccc2c(c1C(=O)N1CCOCC1)C(=O)CCC2`, the outcome in assay [1] was inactive.
The same measure, in the same setting: then `O=C(O)c1ccc2c(c1C(=O)Nc1ccccc1)C(=O)CCC2`, with “inactive”.
Regarding `O=C(O)c1ccc2c3c1C(=O)N(c1ccccc1)C3=CCC2`, the inhibition in assay [3] came to 46%. The IC50 in assay [4] came to 800 µM.
On to `CC1(C)CCC(=O)c2c1ccc1c2C(O)OC1=O` (stereo not drawn), for which the result in assay [1] and in assay [2] was inactive.
In the case of `O=C(O)c1ccc2c3c1C(=O)N(c1ccccc1)C3(O)CCC2` (stereo not drawn), the outcome in assay [1] was inactive.
In the case of `O=C1OC(=O)c2c1ccc1c2C(=O)CCC1`, the outcome in assay [1] was inactive.
The same measure, in the same setting: in the case of `CC1(C)CCC(=O)c2c1ccc(C(=O)O)c2C(=O)O` it was “inactive”.
For `COC1OC(=O)c2ccc3c(c21)C(=O)C=CC3(C)C` (stereo not drawn), in assay [5], the inhibition is 15%.
Take `CO[C@@H]1OC(=O)c2ccc3c(c21)C(=O)[C@@H]1O[C@@H]1C3(C)C` (racemic): the result in assay [1] and in assay [2] was inactive.
For `COC(=O)c1c(C(=O)O)ccc2c1C(=O)CCC2`, in assay [1], the result was inactive.
Same read-out and setting: then `CCN(CC)C(=O)c1c(C(=O)O)ccc2c1C(=O)CCC2`, with “inactive”.
On to `O=C(O)c1ccc2c3c1C(=O)N(Cc1ccccc1)C3(O)CCC2` (stereo not drawn), for which the inhibition in assay [3] came out at 65%. Moreover, in assay [4], the IC50 turned out to be 1200 µM.
For `O=C(O)c1ccc2c(c1C(=O)NCc1ccccc1)C(=O)CCC2` the same measures were 89% and 11700 µM.
As for `O=C(O)c1ccc2c3c1C(=O)N(Cc1ccccc1)C3=CCC2`, in assay [3], the inhibition turned out to be 46%. The half-inhibitory concentration (IC50) in assay [4] was found to be 1100 µM.

The values above are taken from ChEMBL document CHEMBL1150399, “Evaluation of novel hyphodermin derivatives as glycogen phosphorylase a inhibitors” (Bioorg Med Chem, 2008).
